From publication PMC6155302, “Anti-Cancer Activity of Resveratrol and Derivatives Produced by Grapevine Cell Suspensions in a 14 L Stirred Bioreactor” (Molecules : A Journal of Synthetic Chemistry and Natural …, 2017) come the findings set out here.

Test [1] has as its system HT-144 cells. The test can be described thus: MTT cell viability assay, HT-144 melanoma cells. The note with it: for Cell viability inhibition, HT-144 (result in words): 10–100 μM, 6, 24 and 48 h; for IC50: Homo sapiens, HT-144, 24 h. The format is cell-based, human. How it is done:
(§1) Three cell types were studied. The HT-144 and SKMEL-28 cell lines derived from human melanoma and were obtained from the American Tissue Culture Collection (ATCC). They were grown in Mc Coy’s 5a modified and minimal essential medium (MEM) respectively, supplemented with 10% (v/v) fetal bovine serum (FBS) and 1% (v/v) antibiotic (penicillin, streptomycin) at 37 °C in a humidified atmosphere of 5% CO2. Human dermal fibroblasts (HDF) were isolated from skin biopsies of healthy subjects. Briefly, the hypodermis was mechanically removed and explants were cut in 1 mm^2 pieces. Skin fragments were then cultivated in Dulbecco’s minimal essential medium (DMEM) supplemented with 20% FBS, 1% antibiotic and 1% fungizone at 37 °C in a humidified atmosphere of 5% CO2. The medium was changed every two days. After 4 weeks of cultures, fibroblasts have covered all the surface of the culture dishes and were trypsined. Cells were grown in DMEM containing 10% FBS and 1% antibiotic at 37 °C in a humidified atmosphere of 5% CO2. Subcultures 3 to 9 were used in this study.
(§2) The three cell types were seeded into 96-well plates (0.32 cm^2, 5500 cells in 200 μL medium par well). After 24 h of culture, the cells were treated in triplicate wells with different bio-produced stilbenes and synthetic resveratrol (≥99%, Sigma-Aldrich, Saint-Quentin Fallavier, France) amounts and treatment times. Compounds were dissolved in ethanol at a 5 × 10^−2 M final concentration and stored at −20 °C. Compounds were diluted in culture media, with or without FBS, to the desired final concentration. All control and treated cells received a maximal volume of 0.1% (v/v) of ethanol.
(§3) Cell viability was tested by the MTT [3-(4,5-dimethyl thiazol-2yl)-2,5-diphenyltetrazolium bromide] assay (Sigma-Aldrich). After MTT addition (0.5 mg/mL), the plates were incubated for 3 h at 37 °C in a humidified atmosphere of 5% CO2. At the end of the incubation period, the medium was removed and the converted dye was solubilized with dimethyl sulfoxide (DMSO). Absorbance of the converted dye was measured at a wavelength of 560 nm using a plate reader Tecan F200 Pro (Tecan, Lyon, France). The 50% inhibitory concentration (IC50) for each bio-produced stilbene was defined as the concentration producing 50% decrease in cell growth.
A general note: Tetrazolium dyes change colour on reduction, which living cells bring about.

Test [2] has as its system SKMEL-28 cells. The test can be described thus: MTT cell viability assay, SKMEL-28 melanoma cells. The note with it: for Cell viability inhibition, SKMEL-28 (result in words): 10–100 μM, 6, 24 and 48 h; for IC50: Homo sapiens, SK-MEL-28, 24 h. The test is classed as cell-based, human. The procedure:
as §1, §2, §3

In test [3] the test system is HDF cells. The test can be described thus: MTT cell viability assay, healthy human dermal fibroblasts. The format is cell-based. The following applies: for Cell viability inhibition, HDF (result in words): 10–100 μM, 6, 24 and 48 h; for IC50: Homo sapiens, HDF, 24 h. How it is done: as §1, §2, §3
The mark [4] stands for this setting: with FBS (10% FBS), read-out: IC50 HT-144 with FBS.
Setting [5] is: without FBS (0% FBS), read-out: IC50 HT-144 without FBS.
The mark [6] stands for this setting: with FBS (10% FBS), read-out: IC50 SKMEL-28 with FBS.
Setting [7] is: without FBS (0% FBS), read-out: IC50 SKMEL-28 without FBS.
Where [8] appears, read: with FBS (10% FBS), read-out: IC50 HDF with FBS.
The mark [9] stands for this setting: without FBS (0% FBS), read-out: IC50 HDF without FBS.

Read-outs that look alike come from different tables or passages of the source.

For orientation: IC50 means the midpoint of a concentration-inhibition curve.

With `Oc1ccc(C(O)C(Oc2ccc(C=Cc3cc(O)cc(O)c3)cc2)c2cc(O)cc(O)c2)cc1` (stereo not drawn) [Dimer (6)], in test [1], the “Cell viability inhibition, HT-144 (result in words)” value is “significant cell viability inhibition”. Besides, the IC50 in test [1] (setting [4]) was > 100 µM; in test [1] (setting [5]), 24.9 ± 0.62 µM; in test [2] (setting [6]), > 100 µM; in test [2] (setting [7]), 23 ± 0.3 µM; in test [3] (setting [8]) it was > 100 µM; in test [3] (setting [9]) it was 22.2 ± 2.61 µM. Moreover, the “Cell viability inhibition, SKMEL-28 (result in words)” value in test [2] is reported as “significant cell viability inhibition”. The “Cell viability inhibition, HDF (result in words)” value (“Cell viability inhibition, HDF” for short) in test [3] is “significant cell viability inhibition”.
On to `Oc1ccc([C@@H]2c3c(O)cc(O)cc3[C@H]3[C@H](c4ccc(O)cc4)c4c(O)cc(O)cc4[C@@H]23)cc1` [Pallidol, pallidol], for which the IC50 in test [1] (setting [4]), in test [1] (setting [5]), in test [2] (setting [6]), in test [2] (setting [7]), in test [3] (setting [8]) and in test [3] (setting [9]) was > 100 µM throughout.
As to `Oc1ccc(/C=C/c2cc(O)cc(O)c2)cc1` [Trans-resveratrol, trans-resveratrol], the IC50 was 93.3 ± 7.6 µM in test [1] (setting [4]); > 100 µM in test [1] (setting [5]); > 100 µM in test [2] (setting [6]); > 100 µM in test [2] (setting [7]); > 100 µM in test [3] (setting [8]); > 100 µM in test [3] (setting [9]).
Consider `Oc1ccc(/C=C/c2cc(O)cc(O)c2)cc1` [synthetic resveratrol, trans-resveratrol, reference compound], for which the “Cell viability inhibition, HT-144 (result in words)” value in test [1] is reported as “dose-dependent decrease in cell growth”. The “Cell viability inhibition, SKMEL-28 (result in words)” value in test [2] was “dose-dependent decrease in cell growth”. Also, in test [3], the “Cell viability inhibition, HDF” value is recorded as “dose-dependent decrease in cell growth”.
Regarding `Oc1ccc(/C=C/c2cc(O)cc3c2[C@@H](c2cc(O)cc(O)c2)[C@H](c2ccc(O)cc2)O3)cc1` [ɛ-viniferin, ε-viniferin], the “Cell viability inhibition, HT-144 (result in words)” value in test [1] is “significant cell viability inhibition”. In addition, the IC50 in test [1] (setting [4]) came to 82.3 ± 3.23 µM; in test [1] (setting [5]), 17.58 ± 0.09 µM; in test [2] (setting [6]) it was 86.6 ± 2.59 µM; in test [2] (setting [7]) it was 15.9 ± 0.44 µM; in test [3] (setting [8]), 91.9 ± 11.3 µM; in test [3] (setting [9]) it was 16.4 ± 1.19 µM. In addition, the “Cell viability inhibition, SKMEL-28 (result in words)” value in test [2] is “significant cell viability inhibition”. For the same molecule, the “Cell viability inhibition, HDF” value in test [3] is on record as “significant cell viability inhibition”.
